One experiment addresses CYP2D6 (Homo sapiens (Human), UniProt P10635). The experiment is described as follows: CYP inhibition test, dextromethorphan O-demethylation. In kind it is in vitro ADME. The note with it: pooled human hepatic microsome; 5 μmol/L dextromethorphan; given as 'five kinds'. As for the experimental part:
Using commercially available pooled human hepatic microsome, and employing, as markers, 7-ethoxyresorufin O-deethylation (CYP1A2), tolbutamide methyl-hydroxylation (CYP2C9), mephenyloin 4′-hydroxylation (CYP2C19), dextromethorphan O-demethylation (CYP2D6), and terfenedine hydroxylation as typical substrate metabolism reactions of human main five ([…] enzyme forms (CYP1A2, 2C9, 2C19, 2D6, 3A4), an inhibitory degree of each metabolite production amount by a test compound was assessed.
The reaction conditions were as follows: substrate, 0.5 μmol/L ethoxyresorufin (CYP1A2), 100 μmol/L tolbutamide (CYP2C9), 50 μmol/L S-mephenitoin (CYP2C19), 5 μmol/L dextromethorphan (CYP2D6), 1 μmol/L terfenedine (CYP3A4); reaction time, 15 minutes; reaction temperature, 37° C.; enzyme, pooled human hepatic microsome 0.2 mg protein/mL; test drug concentration, 1.0. 5.0, 10, 20 μmol/L (four points).
Each five kinds of substrates, human hepatic microsome, or a test drug in 50 mmol/L Hepes buffer as a reaction solution was added to a 96-well plate at the composition as described above. NADPH, as a cofactor was added to initiate metabolism reactions as markers and, after the incubation at 37° C. for 15 minutes, a methanol/acetonitrile=1/1 (v/v) solution was added to stop the reaction. After the centrifugation at 3000 rpm for 15 minutes, resorufin (CYP1A2 metabolite) in the supernatant was quantified by a fluorescent multilabel counter and tributamide hydroxide (CYP2CP metabolite), mephenyloin 4′ hydroxide (CYP2C19 metabolite), […], and terfenadine alcohol (CYP3A4 metabolite) were quantified by LC/MS/MS.
Addition of only DMSO being a solvent dissolving a drug to a reaction system was adopted as a control (100%), remaining activity (%) was calculated at each concentration of a test drug added as the solution and IC50 was calculated by reverse presumption by a logistic model using a concentration and an inhibition rate.

In a further experiment the target is CYP3A4 (Homo sapiens (Human), UniProt P08684). The experiment is described as follows: CYP3A4 fluorescent MBI test. The note with it: pre-reaction time 0 or 30 minutes; substrate 7-BFC; CYP3A4 expressed in Escherichia coli. The class given is in vitro ADME. The protocol:
The CYP3A4 fluorescent MBI test is a test of investigating enhancement of CYP3A4 inhibition of a compound by a metabolism reaction, and the test is performed using, as CYP3A4 enzyme expressed in Escherichia coli and employing, as an index, a reaction in which 7-benzyloxytrifluoromethylchmarin (BFC) is debenzylated by the CYP3A4 enzyme to produce a metabolite, 7-hydroxytrifluoromethylchmarin (HFC) emitting fluorescent light.
The reaction conditions were as follows: substrate, 5.6 μmol/L 7-BFC; pre-reaction time, 0 or 30 minutes; reaction time, 15 minutes; reaction temperature, 25° C.
An enzyme in a K-Pi buffer (pH 7.4) and a test drug solution as a pre-reaction solution were added to a 96-well plate at the composition of the pre-reaction, a part of it was transferred to another 96-well plate so that it was 1/10 diluted by a substrate in a K-Pi buffer, NADPH as a co-factor was added to initiate a reaction as an index (without preincubation) and, after a predetermined time of a reaction, acetonitrile: 0.5 mol/L Tris (trishydroxyaminomethane)=4:1 was added to stop the reaction. In addition, NADPH was added to a remaining preincubation solution to initiate a preincubation (with preincubation) and, after a predetermined time of a preincubation, a part was transferred to another plate so that it was 1/10 diluted with a substrate and a K-Pi buffer to initiate a reaction as an index, After a predetermined time of a reaction, acetonitrile: 0.5 mol/L Tris (trishydroxyaminomethane)=4:1 was added to stop the reaction. For the plate on which each index reaction had been performed, a fluorescent value of 7-HFC which is a metabolite was measured with a fluorescent plate reader. (Ex=420 nm, Em=535 nm).
Addition of only DMSO which is a solvent dissolving a drug to a reaction system was adopted as a control (100%), remaining activity (%) was calculated at each concentration of a test drug added as the solution, and IC50 was calculated by reverse-presumption by a logistic model using a concentration and an inhibition rate. When a difference between IC50 values is 5 or more, this was defined as (+) and, when the difference is 3 μmol/L or less, this was defined as (−).

Sequence of CYP2D6 (P10635 whole entry): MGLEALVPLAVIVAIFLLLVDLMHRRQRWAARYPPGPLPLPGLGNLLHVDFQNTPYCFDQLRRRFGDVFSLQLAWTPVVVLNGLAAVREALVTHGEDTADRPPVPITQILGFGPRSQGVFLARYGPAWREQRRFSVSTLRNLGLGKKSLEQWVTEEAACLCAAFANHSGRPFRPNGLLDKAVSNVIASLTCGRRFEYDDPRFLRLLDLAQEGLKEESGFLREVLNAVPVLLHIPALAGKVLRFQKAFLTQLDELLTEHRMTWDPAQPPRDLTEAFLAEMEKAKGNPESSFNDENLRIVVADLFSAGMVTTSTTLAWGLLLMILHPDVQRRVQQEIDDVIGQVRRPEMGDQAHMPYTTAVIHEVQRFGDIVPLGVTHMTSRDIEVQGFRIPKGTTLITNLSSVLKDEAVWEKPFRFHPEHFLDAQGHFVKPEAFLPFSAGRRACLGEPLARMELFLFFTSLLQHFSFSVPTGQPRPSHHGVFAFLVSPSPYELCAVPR
Sequence of CYP3A4 (P08684 whole entry): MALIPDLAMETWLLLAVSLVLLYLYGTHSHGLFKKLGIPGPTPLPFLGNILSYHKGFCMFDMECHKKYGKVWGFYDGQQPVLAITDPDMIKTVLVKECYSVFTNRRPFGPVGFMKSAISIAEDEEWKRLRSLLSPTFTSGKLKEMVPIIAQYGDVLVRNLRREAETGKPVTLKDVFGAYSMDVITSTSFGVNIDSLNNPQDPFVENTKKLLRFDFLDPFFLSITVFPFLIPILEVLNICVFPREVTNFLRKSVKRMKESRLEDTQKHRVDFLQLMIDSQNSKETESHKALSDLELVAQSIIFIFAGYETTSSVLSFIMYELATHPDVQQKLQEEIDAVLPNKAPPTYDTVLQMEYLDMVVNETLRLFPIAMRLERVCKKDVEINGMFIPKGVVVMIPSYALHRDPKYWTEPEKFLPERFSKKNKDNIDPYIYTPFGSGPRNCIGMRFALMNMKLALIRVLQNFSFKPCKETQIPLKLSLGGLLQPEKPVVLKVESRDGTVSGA

In the case of `CC(C)Oc1ccc(Nc2cc(=O)n(C[C@H](C)C(=O)O)c(=O)n2Cc2ccc(Cl)cc2)cc1Cl` [I-100], at CYP2D6, the IC50 was greater than 20 µM. This compound gave an IC50 difference against CYP3A4 of less than 3 µM.

As a reminder, the IC50 is the point on the concentration scale where inhibition reaches its midpoint. A lower IC50 goes with greater potency.

Source of the values: patent US9212130B2, “Heterocyclic derivative and pharmaceutical composition comprising the same” (SHIONOGI & CO., LTD., priority 2010, dated 2015).
